This is an account of results in PubChem BioAssay (NCI).

Each structure is given as a SMILES string.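 48-hour exposure; five concentrations; linearly interpolated endpoints. At the GI50, growth is halved. Definition used: TGI = concentration required for complete inhibition of growth.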

What all share (assay): NCI-60 cell line screen, 48 h
Assay [1] has as its system HCC-2998 colon.
In assay [2] the test system is SK-MEL-5 melanoma.
Assay [3] has as its system NCI-H460 lung.
Assay [4] relates to COLO 205 colon.
Assay [5] concerns NCI-H226 lung.
The test system of assay [6] is HL-60(TB) leukemia.
Assay [7] concerns NCI-H522 lung.
Assay [8] has as its system K-562 leukemia.

For `CCCCCCC(O)CC[C@H]1CCC[C@@H](C)N1` (stereo partly specified), the TGI in assay [1] is above 100 µM; in assay [2], above 100 µM; in assay [3], above 100 µM; in assay [4], above 31.6 µM; in assay [5], above 100 µM; in assay [6], above 100 µM. Moreover, the TGI in assay [7] and in assay [8] was above 100 µM in each case.
As to `CCC1=CCN(c2cc(C)ccn2)OC1c1ccccc1` (stereo unspecified), the TGI in assay [1] was 81.7 µM; in assay [3], above 100 µM; in assay [4], above 100 µM; in assay [5], above 100 µM; in assay [6] it was 41.8 µM; in assay [7] it was 62.1 µM. The compound also returned a TGI in assay [8] above 100 µM.
Regarding `COC(=O)C(C(=O)C(=O)Nc1ccc(C)cc1C)c1csc(-n2nc(-c3ccccc3)cc2-c2ccccc2)n1` (stereo unspecified), the TGI in assay [1], in assay [3], in assay [4], in assay [5], in assay [6] and in assay [7] was above 100 µM in each case. In assay [8], the TGI is above 100 µM.
`CC1(C)COC2C(N(Cc3ccccc3)Cc3ccccc3)C(=O)N21` (stereo unspecified): the TGI in assay [1] is above 100 µM; in assay [2], above 100 µM; in assay [3], above 100 µM; in assay [4], 61.8 µM; in assay [5], above 100 µM; in assay [6], 62.9 µM. The TGI in assay [7] worked out at 45.6 µM; in assay [8], 82.9 µM.
For the compound `CC1=Nc2ccccc2SC(c2c(Cl)cccc2Cl)C1` (stereo unspecified), the TGI in assay [1] stood at 3.18 µM; in assay [2], 3.06 µM; in assay [3], 3.26 µM; in assay [4], 3.12 µM; in assay [5] it was 3.05 µM; in assay [6], 1.12 µM. Also, the TGI is 2.23 µM in assay [7] and 1.71 µM in assay [8].
With `CN/N=C(/c1nc2ccc([N+](=O)[O-])cc2[nH]c1=O)C(O)c1ccc(C(O)/C(=N\NC)c2nc3ccc([N+](=O)[O-])cc3[nH]c2=O)cc1` (stereo unspecified), the TGI in assay [1] is 95.1 µM; in assay [2], above 100 µM; in assay [3], above 100 µM; in assay [4] it was above 100 µM; in assay [5], above 100 µM; in assay [6] it was 53.5 µM. In assay [8], this compound gave a TGI above 100 µM.
On to `C#CCN(N=O)C(=O)ON1C(=O)CCC1=O`, for which the TGI in assay [2], in assay [3], in assay [4], in assay [6], in assay [7] and in assay [8] was above 100 µM throughout.
Take `O=C1CCC2(c3ccccc3)Nc3ccccc3N12` (stereo unspecified): the TGI in assay [1], in assay [2], in assay [3], in assay [4], in assay [5] and in assay [6] was above 100 µM each time. The TGI in assay [7] and in assay [8] was above 100 µM in each case.
Take `O=C1c2ccccc2C(=O)C12CCc1ccccc12`: the TGI in assay [1], in assay [3], in assay [4], in assay [6] and in assay [8] was above 100 µM each time.
As to `COc1cc2c(c3c1c(=O)c1ccccc1n3C)C=CC(C)(C)O2`, the TGI in assay [2] was above 100 µM; in assay [3], above 100 µM; in assay [4], above 100 µM; in assay [5] it was above 100 µM; in assay [6], above 100 µM; in assay [7], 50.7 µM. For the same compound, the TGI in assay [8] was above 100 µM.
On to `C=C1C(=O)C23[C@H](O)C1CC[C@H]2[C@]12COC3(O)[C@@H](O)[C@@H]1C(C)(C)CC[C@@H]2O`, for which the TGI in assay [1] was found to be 29.9 µM; in assay [2] it was 28.6 µM; in assay [3], 30.7 µM; in assay [4], 2.14 µM; in assay [6] it was 47.3 µM; in assay [7] it was 1.9 µM. For the same compound, in assay [8], the TGI turned out to be 15.6 µM.
`COc1cc(C2=NN(C(C)=O)C(c3cc(OC)c(OC)c(OC)c3)C2)ccc1O` (stereo unspecified): the GI50 in assay [1] was 0.539 µM; in assay [2], 0.132 µM; in assay [3], 0.346 µM; in assay [4], 0.274 µM; in assay [5], 23.6 µM; in assay [6], 0.182 µM. The GI50 was 0.273 µM in assay [7] and 0.261 µM in assay [8]. Moreover, the TGI in assay [1] is above 100 µM; in assay [2], 2.19 µM; in assay [3] it was above 40.8 µM; in assay [4], 1.05 µM; in assay [5] it was above 100 µM; in assay [6] it was 0.514 µM. Also, the TGI in assay [7] was above 35.4 µM; in assay [8] it was above 100 µM.
Take `CN(C)C(=S)/N=c1\ssc(=S)n1C`: the TGI in assay [1], in assay [2], in assay [3], in assay [5], in assay [6] and in assay [7] was above 100 µM each time. Moreover, in assay [8], the TGI is above 100 µM.
On to `CN(C)c1ccc(/C=C(\NC(=O)c2ccccc2)c2nc3ccc4c(c3[nH]2)C(=O)c2ccccc2C4=O)cc1`, for which the TGI in assay [1], in assay [2], in assay [3], in assay [4], in assay [7] and in assay [8] was above 100 µM in each case.
In the case of `COc1ccc(/C=C(\NC(=O)c2ccccc2)c2nc3ccccc3[nH]2)cc1OC`, the TGI in assay [1], in assay [2], in assay [3], in assay [4], in assay [5] and in assay [6] was above 100 µM throughout. Besides, the TGI in assay [7] and in assay [8] was above 100 µM in each case.
For the compound `CC(=O)OC(C(=O)[O][Sn]([CH3])([CH3])[CH3])c1ccccc1` (stereo unspecified), the GI50 in assay [1], in assay [2], in assay [3], in assay [4], in assay [5] and in assay [6] was above 100 µM throughout. Also, the GI50 is 19.9 µM in assay [7] and above 100 µM in assay [8]. Further, the TGI in assay [1], in assay [2], in assay [3], in assay [4], in assay [5] and in assay [6] was above 100 µM throughout. For the same compound, the TGI in assay [7] was 62.6 µM; in assay [8], above 100 µM.
